Source: ChEMBL document CHEMBL6134905, “Double Swords in One: Novel Selective PI3K/110β PROTAC Degraders for the Treatment of Multidrug-Resistant Cancer by Activating ERS and Inhibiting P-gp” (J Med Chem, 2025)
Active and inactive are the calls of the source. The calls are words filed in the database; no cut-off is given here.

Key:
[1] = target: von Hippel-Lindau disease tumor suppressor/Phosphatidylinositol 4,5-bisphosphate 3-kinase catalytic subunit alpha isoform (Homo sapiens, UniProt P42336+P40337); assay: PROTAC activity at PI3K-p110alpha/VHL in human A549/DDP cells assessed as induction of PI3K-p110alpha degradation at 0.04 to 50 uM by Western blot analysis; format: cell-based; conditions: dose 0.04-50 µM, time 24.0 hrs
[2] = test system: A549/CDDP; assay: Downregulation of p-gp level in human A549/DDP cells at 6.25 to 25 uM incubated for 24 hrs; format: functional, cell-based; conditions: dose 6.25-25 µM
[3] = target: T1, von Hippel-Lindau disease tumor suppressor/Phosphatidylinositol 4,5-bisphosphate 3-kinase catalytic subunit beta isoform (Homo sapiens, UniProt P42338+P40337); assay: PROTAC activity at PI3K-p110beta/VHL in human MCF7/ADM cells assessed as induction of PI3K-p110beta degradation at 25 uM measured for 24 hrs in presence of VHL ligand by Western blot analysis; format: cell-based
[4] = test system: MCF7/ADM; assay: Antitumor activity against human MCF7/ADM cells xenografted in BALB/c mouse assessed as downregulation of p110beta level in tumor at 50 mg/kg, ip; format: functional, organism-based
[5] = target: T1, von Hippel-Lindau disease tumor suppressor/Phosphatidylinositol 4,5-bisphosphate 3-kinase catalytic subunit beta isoform; assay: PROTAC activity at PI3K-p110beta/VHL in human MCF7/ADM cells assessed as induction of PI3K-p110beta degradation at 25 uM measured for 24 hrs in presence of TGX221 by Western blot analysis; format: cell-based
[6] = Toxicity in BALB/c mouse xenografted with human MCF7/ADM cells assessed as heart damage at 50 mg/kg, ip by H and E staining based analysis; format: organism-based; conditions: in vivo
[7] = test system: A549/CDDP; assay: Upregulation of ATF6 expression in human A549/DDP cells at 0.25 to 25 uM incubated for 24 hrs by Western blot analysis; format: functional, cell-based; conditions: dose 0.25-25 µM
[8] = target: T1, von Hippel-Lindau disease tumor suppressor/Phosphatidylinositol 4,5-bisphosphate 3-kinase catalytic subunit beta isoform; assay: PROTAC activity at PI3K-p110beta/VHL in human A549/DDP cells assessed as reduction in PI3K-p110beta level at 25 uM measured for 24 hrs by Western blot analysis; format: cell-based
[9] = test system: MCF7/ADM; assay: Antitumor activity against human MCF7/ADM cells xenografted in BALB/c mouse assessed as reduction in AKT expression in tumor at 50 mg/kg, ip by Western blot analysis; format: functional, organism-based
[10] = test system: MCF7/ADM; assay: Induction of apoptosis in human MCF7/ADM cells assessed as increase in cleaved caspase-9 expression at 12.5 uM incubated for 24 hrs by Western blot analysis; format: functional, cell-based
[11] = test system: MCF7; assay: Antitumor activity against human MCF7 cells assessed as cell viability incubated for 24 hrs by MTT assay; format: functional, cell-based; conditions: MCF7, 24 h
[12] = test system: MCF7/ADM; assay: Upregulation of ATF6 expression in human MCF7/ADM cells at 0.25 to 25 uM incubated for 24 hrs by Western blot analysis; format: functional, cell-based; conditions: dose 0.25-25 µM
[13] = test system: A549/CDDP; assay: Induction of oxidative stress in human A549/DDP cells at 25 uM measured for 24 hrs; format: functional, cell-based
[14] = target: T1, von Hippel-Lindau disease tumor suppressor/Phosphatidylinositol 4,5-bisphosphate 3-kinase catalytic subunit beta isoform; assay: PROTAC activity at PI3K-p110beta/VHL in human A549/DDP cells assessed as induction of PI3K-p110beta degradation at 25 uM measured for 24 hrs in presence of VHL ligand by Western blot analysis; format: cell-based
[15] = Toxicity in BALB/c mouse xenografted with human MCF7/ADM cells assessed as change in platelet count at 50 mg/kg, ip; format: organism-based; conditions: in vivo
[16] = test system: MCF7/ADM; assay: Antitumor activity against human MCF7/ADM cells xenografted in BALB/c mouse assessed as increase in ATF6 expression in tumor at 50 mg/kg, ip by Western blot analysis; format: functional, organism-based
[17] = test system: A549/CDDP; assay: Upregulation of CHOP expression in human A549/DDP cells at 0.25 to 25 uM incubated for 24 hrs by Western blot analysis; format: functional, cell-based; conditions: dose 0.25-25 µM
[18] = target: T1, von Hippel-Lindau disease tumor suppressor/Phosphatidylinositol 4,5-bisphosphate 3-kinase catalytic subunit beta isoform; assay: PROTAC activity at PI3K-p110beta/VHL in human MCF7/ADM cells assessed as reduction in PI3K-p110beta level incubated for 12 to 36 hrs by Western blot analysis; format: cell-based; conditions: time 12-36 hrs
[19] = Toxicity in BALB/c mouse xenografted with human MCF7/ADM cells assessed as change in WBC count at 50 mg/kg, ip; format: organism-based; conditions: in vivo
[20] = test system: MCF7/ADM; assay: Antitumor activity against human MCF7/ADM cells xenografted in BALB/c mouse assessed as reduction in tumor volume at 50 mg/kg, ip measured every 2 days; format: functional, organism-based; conditions: time 2.0 day
[21] = target: T1, von Hippel-Lindau disease tumor suppressor/Phosphatidylinositol 4,5-bisphosphate 3-kinase catalytic subunit beta isoform; assay: PROTAC activity at PI3K-p110beta/VHL in human A549/DDP cells assessed as induction of PI3K-p110beta degradation incubated for 24 hrs by Western blot analysis; format: cell-based; conditions: dose 0.04-50 µM
[22] = test system: A549/CDDP; assay: Induction of ROS level in human A549/DDP cells at 25 uM measured for 24 hrs by MitoSOX staining based analysis; format: functional, cell-based
[23] = test system: MCF7/ADM; assay: Upregulation of PTEN expression in human MCF7/ADM cells at 25 uM incubated for 24 hrs by Western blot analysis; format: functional, cell-based
[24] = test system: A549; assay: Antitumor activity against human A549 cells assessed as cell viability incubated for 24 hrs by MTT assay; format: functional, cell-based; conditions: A549, 24 h
[25] = test system: A549/CDDP; assay: Upregulation of ATF4 expression in human A549/DDP cells at 0.25 to 25 uM incubated for 24 hrs by Western blot analysis; format: functional, cell-based; conditions: dose 0.25-25 µM
[26] = test system: MCF7/ADM; assay: Upregulation of p-IRE1 expression in human MCF7/ADM cells at 0.25 to 25 uM incubated for 24 hrs by Western blot analysis; format: functional, cell-based; conditions: dose 0.25-25 µM
[27] = test system: MCF7/ADM; assay: Induction of apoptosis in human MCF7/ADM cells assessed as increase in cleaved caspase-3 expression at 12.5 uM incubated for 24 hrs by Western blot analysis; format: functional, cell-based
[28] = target: T1, von Hippel-Lindau disease tumor suppressor/Phosphatidylinositol 4,5-bisphosphate 3-kinase catalytic subunit beta isoform; assay: PROTAC activity at PI3K-p110beta/VHL in human MCF7/ADM cells assessed as induction of PI3K-p110beta degradation at 25 uM measured for 24 hrs in presence of MG132 by Western blot analysis; format: cell-based
[29] = test system: MCF7/ADM; assay: Antitumor activity against human MCF7/ADM cells xenografted in BALB/c mouse assessed as increase in CHOP expression in tumor at 50 mg/kg, ip by Western blot analysis; format: functional, organism-based
[30] = test system: MCF7/ADM; assay: Activation of unfolded protein response in human MCF7/ADM cells at 25 uM incubated for 24 hrs by PROTEOSTATR aggresome dye based fluorescent microscopy; format: functional, cell-based
[31] = target: ATP-dependent translocase ABCB1 (Homo sapiens, UniProt P08183); assay: Inhibition of P-gp in human A549/DDP cells at 6.25 to 25 uM incubated for 24 hrs; format: cell-based; conditions: dose 6.25-25 µM
[32] = test system: MCF7/ADM; assay: Upregulation of CHOP expression in human MCF7/ADM cells at 0.25 to 25 uM incubated for 24 hrs by Western blot analysis; format: functional, cell-based; conditions: dose 0.25-25 µM
[33] = test system: MCF7/ADM; assay: Induction of apoptosis in human MCF7/ADM cells assessed as decrease in bax expression at 12.5 uM incubated for 24 hrs by Western blot analysis; format: functional, cell-based
[34] = target: T1, von Hippel-Lindau disease tumor suppressor/Phosphatidylinositol 4,5-bisphosphate 3-kinase catalytic subunit beta isoform; assay: PROTAC activity at PI3K-p110beta/VHL in human A549/DDP cells assessed as reduction in PI3K-p110beta level incubated for 12 to 36 hrs hrs by Western blot analysis; format: cell-based; conditions: time 12-36 hrs
[35] = test system: A549/CDDP; assay: Induction of apoptosis in human A549/DDP cells assessed as decrease in bax expression at 12.5 uM incubated for 24 hrs by Western blot analysis; format: functional, cell-based

T1 sequence (P40337 whole entry, looked up, canonical isoform): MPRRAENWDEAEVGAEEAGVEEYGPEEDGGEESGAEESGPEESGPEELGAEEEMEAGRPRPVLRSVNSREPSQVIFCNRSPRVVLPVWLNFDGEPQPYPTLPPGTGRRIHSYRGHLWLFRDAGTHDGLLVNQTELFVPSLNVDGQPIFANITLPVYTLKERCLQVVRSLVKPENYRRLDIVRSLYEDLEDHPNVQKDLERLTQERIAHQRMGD
T1 sequence (P42338 whole entry, looked up, canonical isoform): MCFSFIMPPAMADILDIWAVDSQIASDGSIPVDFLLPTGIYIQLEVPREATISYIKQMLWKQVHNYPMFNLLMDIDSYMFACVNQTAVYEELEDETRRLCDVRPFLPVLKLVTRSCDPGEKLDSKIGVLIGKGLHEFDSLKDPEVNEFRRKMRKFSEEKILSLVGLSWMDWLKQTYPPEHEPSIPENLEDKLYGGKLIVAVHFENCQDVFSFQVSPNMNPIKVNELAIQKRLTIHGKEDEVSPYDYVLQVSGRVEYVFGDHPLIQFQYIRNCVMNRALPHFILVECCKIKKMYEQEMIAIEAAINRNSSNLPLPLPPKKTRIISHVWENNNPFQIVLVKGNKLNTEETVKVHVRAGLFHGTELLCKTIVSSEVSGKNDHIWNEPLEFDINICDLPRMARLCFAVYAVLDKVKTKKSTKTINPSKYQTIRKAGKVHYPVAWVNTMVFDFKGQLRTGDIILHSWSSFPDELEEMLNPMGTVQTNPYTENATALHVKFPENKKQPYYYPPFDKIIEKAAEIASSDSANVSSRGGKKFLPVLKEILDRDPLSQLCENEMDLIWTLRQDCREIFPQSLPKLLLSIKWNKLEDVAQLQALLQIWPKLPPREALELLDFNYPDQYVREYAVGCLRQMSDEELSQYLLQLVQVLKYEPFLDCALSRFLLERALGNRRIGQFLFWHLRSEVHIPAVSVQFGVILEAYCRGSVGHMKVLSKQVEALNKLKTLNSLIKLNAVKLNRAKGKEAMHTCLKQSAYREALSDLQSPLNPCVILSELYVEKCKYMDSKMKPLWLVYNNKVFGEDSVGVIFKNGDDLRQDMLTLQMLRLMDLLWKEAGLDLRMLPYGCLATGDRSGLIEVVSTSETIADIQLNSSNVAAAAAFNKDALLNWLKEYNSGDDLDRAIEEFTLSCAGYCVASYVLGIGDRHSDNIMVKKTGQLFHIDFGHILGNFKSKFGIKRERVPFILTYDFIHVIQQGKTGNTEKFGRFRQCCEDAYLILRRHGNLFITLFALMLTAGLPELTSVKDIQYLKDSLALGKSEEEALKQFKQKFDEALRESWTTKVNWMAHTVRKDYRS
Chain of ATP-dependent translocase ABCB1 (P08183 whole entry): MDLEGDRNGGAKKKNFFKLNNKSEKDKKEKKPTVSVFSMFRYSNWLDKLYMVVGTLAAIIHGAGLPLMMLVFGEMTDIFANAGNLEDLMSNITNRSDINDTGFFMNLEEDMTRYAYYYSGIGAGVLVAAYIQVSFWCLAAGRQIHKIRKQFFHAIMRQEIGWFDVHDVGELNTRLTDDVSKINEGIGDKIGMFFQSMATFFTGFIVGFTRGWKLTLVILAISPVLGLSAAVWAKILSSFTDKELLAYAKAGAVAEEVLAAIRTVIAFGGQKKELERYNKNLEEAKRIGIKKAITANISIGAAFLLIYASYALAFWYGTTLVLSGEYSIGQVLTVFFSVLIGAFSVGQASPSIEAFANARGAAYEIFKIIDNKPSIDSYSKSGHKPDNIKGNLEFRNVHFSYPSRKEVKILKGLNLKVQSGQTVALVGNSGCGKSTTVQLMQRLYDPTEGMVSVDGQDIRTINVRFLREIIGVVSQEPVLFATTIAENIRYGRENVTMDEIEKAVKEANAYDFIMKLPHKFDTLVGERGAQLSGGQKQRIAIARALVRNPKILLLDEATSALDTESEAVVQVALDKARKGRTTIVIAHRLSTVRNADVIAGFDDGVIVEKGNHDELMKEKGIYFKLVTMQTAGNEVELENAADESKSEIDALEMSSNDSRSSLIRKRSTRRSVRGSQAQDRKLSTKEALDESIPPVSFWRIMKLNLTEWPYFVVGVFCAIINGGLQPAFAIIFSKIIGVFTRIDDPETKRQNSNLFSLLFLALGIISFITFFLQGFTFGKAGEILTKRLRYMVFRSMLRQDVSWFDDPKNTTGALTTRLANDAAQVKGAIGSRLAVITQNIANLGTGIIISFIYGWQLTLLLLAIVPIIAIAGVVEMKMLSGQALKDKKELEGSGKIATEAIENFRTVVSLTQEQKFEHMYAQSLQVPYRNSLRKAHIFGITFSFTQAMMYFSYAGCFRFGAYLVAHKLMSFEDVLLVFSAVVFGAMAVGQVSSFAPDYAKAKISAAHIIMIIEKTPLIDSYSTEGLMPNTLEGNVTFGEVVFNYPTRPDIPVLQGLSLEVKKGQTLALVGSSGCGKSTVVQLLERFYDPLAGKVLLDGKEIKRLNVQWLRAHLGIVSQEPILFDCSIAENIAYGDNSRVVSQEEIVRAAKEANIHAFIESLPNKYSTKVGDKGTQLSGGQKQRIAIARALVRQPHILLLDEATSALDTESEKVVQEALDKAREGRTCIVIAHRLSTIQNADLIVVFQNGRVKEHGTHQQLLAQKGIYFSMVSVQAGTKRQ
Chain of von Hippel-Lindau disease tumor suppressor/Phosphatidylinositol 4,5-bisphosphate 3-kinase catalytic subunit alpha isoform (P40337 whole entry, looked up, canonical isoform): as the sequence (P40337 whole entry, looked up, canonical isoform) above
Chain of von Hippel-Lindau disease tumor suppressor/Phosphatidylinositol 4,5-bisphosphate 3-kinase catalytic subunit alpha isoform (P42336 whole entry, looked up, canonical isoform): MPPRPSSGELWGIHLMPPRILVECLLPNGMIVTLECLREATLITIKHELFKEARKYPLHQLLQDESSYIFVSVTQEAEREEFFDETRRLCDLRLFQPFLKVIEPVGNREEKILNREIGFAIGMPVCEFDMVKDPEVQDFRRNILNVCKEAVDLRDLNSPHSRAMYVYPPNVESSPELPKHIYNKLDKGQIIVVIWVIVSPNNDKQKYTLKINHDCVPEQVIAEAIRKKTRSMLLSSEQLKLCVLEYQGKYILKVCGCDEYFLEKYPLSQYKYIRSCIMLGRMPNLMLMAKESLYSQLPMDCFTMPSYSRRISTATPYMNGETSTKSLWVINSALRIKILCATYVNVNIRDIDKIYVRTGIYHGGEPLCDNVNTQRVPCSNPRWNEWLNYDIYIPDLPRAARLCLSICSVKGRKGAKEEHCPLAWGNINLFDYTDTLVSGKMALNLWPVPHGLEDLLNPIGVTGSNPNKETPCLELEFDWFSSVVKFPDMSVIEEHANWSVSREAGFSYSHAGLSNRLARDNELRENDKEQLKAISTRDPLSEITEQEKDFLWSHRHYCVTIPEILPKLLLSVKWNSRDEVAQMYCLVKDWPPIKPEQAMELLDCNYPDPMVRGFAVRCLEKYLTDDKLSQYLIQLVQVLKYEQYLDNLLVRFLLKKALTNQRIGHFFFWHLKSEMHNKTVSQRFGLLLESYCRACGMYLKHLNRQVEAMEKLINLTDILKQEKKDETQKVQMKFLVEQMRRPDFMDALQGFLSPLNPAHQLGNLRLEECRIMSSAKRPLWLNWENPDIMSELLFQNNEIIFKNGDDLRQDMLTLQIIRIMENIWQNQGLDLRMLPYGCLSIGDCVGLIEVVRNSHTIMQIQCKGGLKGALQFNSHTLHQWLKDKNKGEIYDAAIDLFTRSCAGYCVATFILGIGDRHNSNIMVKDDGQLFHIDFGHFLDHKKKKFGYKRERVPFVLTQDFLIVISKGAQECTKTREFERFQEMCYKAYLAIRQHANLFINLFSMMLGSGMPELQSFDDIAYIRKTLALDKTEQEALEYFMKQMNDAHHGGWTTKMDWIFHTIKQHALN

Structure (SMILES)	Activity [1]	Activity [2]	Activity [3]	Activity [4]	Activity [5]	Activity [6]	Activity [7]	Activity [8]	Activity [9]	Activity [10]	IC50 [11] [µM]	Activity [12]	Activity [13]	Activity [14]	Activity [15]	Activity [16]	Activity [17]	Activity [18]	Activity [19]	Activity [20]	further results
Cc1cc(C(C)Nc2ccccc2C(=O)NCCCCCCC(=O)N[C@H](C(=O)N2C[C@H](O)C[C@H]2C(=O)NCc2ccc(-c3scnc3C)cc2)C(C)(C)C)c2nc(N3CCOCC3)cc(=O)n2c1 (stereo not given in full)	Time-dependent-effect	Active	Active	Active	inactive	Non-toxic	Active	Active	Active	Active	54	Active	Active	Active	Non-toxic	Active	Active	Active	Non-toxic	Active	Activity [21]: Dose-dependent-effect; Activity [22]: Active; Activity [23]: Active; IC50 [24]: 85.2 µM; Activity [25]: Active; Activity [26]: Active; Activity [27]: Active; Activity [28]: Active; Activity [29]: Active; Activity [30]: Active; inhibition (INH) [31]: Active; Activity [32]: Active; Activity [33]: Active; Activity [34]: Active; Activity [35]: Active
Cc1cc(C(C)Nc2ccccc2C(=O)NCCOCCOCCC(=O)N[C@H](C(=O)N2C[C@H](O)C[C@H]2C(=O)NCc2ccc(-c3scnc3C)cc2)C(C)(C)C)c2nc(N3CCOCC3)cc(=O)n2c1 (stereo not given in full)	Time-dependent-effect	Active	Active	Active	inactive	Non-toxic	Active	Active	Active	Active	33.9	Active	Active	Active	Non-toxic	Active	Active	Active	Non-toxic	Active	Activity [21]: Dose-dependent-effect; Activity [22]: Active; Activity [23]: Active; IC50 [24]: 75.3 µM; Activity [25]: Active; Activity [26]: Active; Activity [27]: Active; Activity [28]: Active; Activity [29]: Active; Activity [30]: Active; inhibition (INH) [31]: Active; Activity [32]: Active; Activity [33]: Active; Activity [34]: Active; Activity [35]: Active
